Reference: patent publication US20130345257A1, “COMPOSITION FOR LUPUS NEPHRITIS AND METHODS OF MAKING AND USING THE SAME” (The Regents of the University of California, priority 2012, published 2013)
“Also recorded” adds a separate entry of the source.

Legend:
Format in all cases: in vivo, mouse
[1] = system: lupus nephritis in BWF1 mice; experiment: Preventive treatment of pre-nephritic BWF1 mice (survival, proteinuria, creatinine, anti-dsDNA, renal histology, IgG/C3 deposition); conditions: for Survival vs. controls: BWF1 females treated orally for 24 weeks before disease, p=0.028; for Survival vs. controls / Mice with proteinuria at 32 wks. of age: LAQ 1 and 25 mg/kg; for Survival, low dose treatment: LAQ 1 mg/kg 3 days a week, MMF 30 mg/kg 5 days a week, prior to anti-dsDNA and proteinuria; for Survival, low dose treatment / Chronic scarring (GS, FSGS, IFTA) in kidney / Serum/plasma IgG anti-dsDNA antibody levels: vs water; for Chronic scarring (GS, FSGS, IFTA) in kidney: higher doses, treated before proteinuria; for Onset of proteinuria beyond 32 weeks up until about 42 weeks: low dose: LAQ 1 mg/kg 3 times a week; for Serum/plasma IgG anti-dsDNA antibody levels / Prevention of proteinuria: preventive treatment; for Serum/plasma IgG anti-dsDNA antibody levels: LAQ 1 or 25 mg/kg; for Kidney specimens (histology, glomerular IgG and C3 deposits): after more than 50% of controls developed high proteinuria; for Mice with proteinuria at 32 wks. of age / Mean total histologic score (renal histology): treated before disease; for Mice with proteinuria at 32 wks. of age: water 50%, p<0.0001; for Mean total histologic score (renal histology): water 7.8, p<0.01; for Glomerular deposition of Ig and C3: treated prior to onset of clinical nephritis, vs water group p<0.001
Description: Clinical and immune cell changes were compared in groups of 10-12 BWF1 female mice in the following groups: • Group 1: Water orally 3 times a week for 24 weeks. • Group 2: Laquinimod 1 mg/kg orally 3 times a week for 24 weeks. • Group 3: Laquinimod 25 mg/kg orally 3 times a week for 24 weeks. • Group 4: Mycophenolate Mofetil 30 mg/kg orally […] for 24 weeks. • Group 5: Mycophenolate Mofetil 100 mg/kg orally […] for 24 weeks (“MMF 100”).
Preventive Group: 11-week old (pre-nephritic) BWF1 female mice were treated orally 3 times a week with a) water; b) laquinimod at 1 mg/kg (LAQ1, low dose) or c) 25 mg/kg (LAQ25, high dose) (Teva Pharmaceutical); or 5 times a week with d) mycophenolate mofetil at 30 mg/kg (MMF30, low dose) or e) 100 mg/kg (MMF100, high dose).
(§1) Proteinuria was evaluated weekly using Albustix (Siemens), serum creatinine using a commercial kit (Arbor Assays) and anti-dsDNA IgG antibodies by ELISA as described previously (10). See, e.g., FIGS. 1 and 2.
(§2) Kidney specimens of BWF1 mice (37 weeks of age in the prevention group or 7 and 11 weeks after institution of early or late therapies) were embedded in OCT compound and snap frozen. 4-5 μm an sections were air-dried, fixed with cold acetone and incubated with blocking buffer (anti-CD16/CD32 (1/50), 2% normal goat or rat serum, 2% BSA).
Immunoglobulin G and C3 complement glomerular deposition were investigated by incubation of cryosections with fluoroscein isothiocyanate (FITC)-conjugated goat anti-mouse IgG (1:50) (Sigma) or rat anti-mouse C3 (1:800) (Solulink) in blocking buffer for 2 hours at room temperature. Images were acquired using Nikon Eclipse TE2000-U microscope and MetaMorph 6.3 software (Sunnyvale, Calif.). Quantification of the area immunostained in tissue sections was made using the computer image analysis software ImageJ (rsbinfonihgov</>ij</>indexhtml). For histology, kidney sections were fixed in 10% formalin and 2 μm-paraffin sections were stained with H&E, PAS and methenamine silver (Jones) for histological analysis.
(§3) Histological analysis of glomerular pathology was done by an investigator blinded to treatment group and included acute inflammatory features (endocapillary hypercellularity, mesangial hypercellularity, cellular necrosis, cellular crescents, and interstitial inflammation), and chronic features (global glomerulosclerosis (GS), focal segmental glomerulosclerosis (FSGS), and interstitial fibrosis or tubular atrophy (IF/TA)). The severity of each feature was graded as 0 (absent), 1 (lesions involving up to 25% of the component evaluated), 2 (lesions in 26-50% evaluated) or 3 (lesions in >50%) in each field of the microscope at 400× magnification. The weighted total score of the clinical features was based on this formula: [endocapillary hypercellularity+mesengial hypercellularity+(cellular necrosis*2)+(cellular crescents*2)+interstitial inflammation)/5]+(GS+FSGS+IFTA)/3, with maximum score 5.2. A minimum of 25 glomeruli, of at least 10 mice per group, were scored. Scores from each individual mouse were added and averaged to yield the glomerulonephritis score.

[2] = system: BWF1 mice with high proteinuria (PU^hi); experiment: Therapeutic treatment of BWF1 mice after clinical nephritis / high proteinuria (PU^hi); conditions: for Animals with proteinuria reduced to levels below 300 mg/dL: after 8 weeks of treatment; for FSGS and IF/TA histology scores: compared to controls; for Survival: treated after clinical nephritis / PU^hi, LAQ 25 mg/kg 3 times a week, MMF 100 mg/kg 5 times a week
Description: (§4) Therapeutic Groups: a low proteinuria group)(PU^lo) consisted of mice with IgG anti-dsDNA detectable in serum and proteinuria ≦100 mg/dL, and a high proteinuria group (PU^hi) had proteinuria ≧300 mg/dL.
as §1, §2
as §3, with “The severity of each feature was graded as 0 (absent), 1 (lesions involving up to 25% of the component evaluated), 2 (lesions in 26-50% evaluated) or 3 (lesions in >50%) in each field of the microscope at 400× magnification.” left out

[3] = system: BWF1 mice with anti-dsDNA and low proteinuria (PU^lo); experiment: Therapeutic treatment of BWF1 mice with anti-dsDNA and low proteinuria (PU^lo); conditions: LAQ 25 mg/kg, MMF 100 mg/kg; for Anti-dsDNA / Increase of proteinuria / Rise in serum creatinine / Survival: PU^lo arm; for Reduction of endo-capillary hypercellularity, interstitial inflammation, and focal segmental glomerulosclerosis: PU^lo mice
Description: as §4, §1, §2
as §3, with “The severity of each feature was graded as 0 (absent), 1 (lesions involving up to 25% of the component evaluated), 2 (lesions in 26-50% evaluated) or 3 (lesions in >50%) in each field of the microscope at 400× magnification.” left out

[4] = MMF 100 mg/kg, listed as Laquinimod
[5] = both LAQ doses (1, 25 mg/kg), MMF 100 mg/kg
[6] = preventive, LAQ 25 mg/kg, MMF 100 mg/kg
[7] = PU^hi arm, LAQ 25 mg/kg, MMF 100 mg/kg

Q: `CCN(C(=O)c1c(O)c2c(Cl)cccc2n(C)c1=O)c1ccccc1` [LAQ, 5-chloro-N-ethyl-4-hydroxy-1-methyl-2-oxo-N-phenyl-1,2-dihydroquinoline-3-carboxamide] was tested. Which Survival vs. controls ([1]; MMF 100 mg/kg) did it give?
A: Its Survival vs. controls is “better”.

Q: What about the “Development of proteinuria six weeks after the treatment” value ([1]; FIG. 5, treated three days of each week prior to proteinuria) of the same compound?
A: The value was “did not develop proteinuria”.

Q: And the “Survival, low dose treatment” value [1]?
A: The value was “significantly better; also recorded: still alive at 45 weeks”.

Q: And the “Chronic scarring (GS, FSGS, IFTA) in kidney” value [1]?
A: Its value is “less”.

Q: And the “Onset of proteinuria beyond 32 weeks up until about 42 weeks” value ([1]; MMF 30 mg/kg)?
A: The value was “completely prevented onset of proteinuria”.

Q: What about the “Serum/plasma IgG anti-dsDNA antibody levels” value ([1]; MMF 100 mg/kg) of the same compound?
A: Its value is “suppressed; also recorded: significantly lower; also recorded: lower anti-DNA levels”.

Q: And the “Serum/plasma IgG anti-dsDNA antibody levels” value [1, 4]?
A: Its value is “suppressed”.

Q: What about the Prevention of proteinuria [1, 5] of the same compound?
A: Its Prevention of proteinuria is “equivalent to MMF100 and completely prevented proteinuria and prevented the appearance of proteinuria and none”.

Q: And the Prevention of proteinuria ([1]; both LAQ doses (1, 25 mg/kg), MMF 100 mg/kg, listed as Laquinimod)?
A: The Prevention of proteinuria was “equivalent to MMF 100”.

Q: And the “Kidney specimens (histology, glomerular IgG and C3 deposits)” value [1, 6]?
A: Its value is “largely unremarkable”.

Q: What about the “Rise in serum creatinine levels” value ([1]; preventive, LAQ 25 mg/kg, after 18 weeks of treatment) of the same compound?
A: Its value is “significantly delayed; also recorded: prevented a rise in serum creatinine”.

Q: And the “Mice with proteinuria at 32 wks. of age” value ([1]; MMF 100 mg/kg)?
A: The value was “zero”.

Q: What about the “Mice with proteinuria at 32 wks. of age” value [1, 4] of the same compound?
A: Its value is “none”.

Q: And the “Mean total histologic score (renal histology)” value ([1]; MMF 100 mg/kg)?
A: Its value is 1.0.

Q: What about the “Glomerular deposition of Ig and C3” value [1] of the same compound?
A: Its value is “in the normal range; also recorded: significantly decreased”.

Q: And the “Glomerular deposition of Ig and C3” value ([1]; listed as laquinimod)?
A: The value was “in the normal range”.

Q: And the “Rise in serum creatinine” value [2, 7]?
A: The value was “suppresses”.

Q: And the “Animals with proteinuria reduced to levels below 300 mg/dL” value [2, 7]?
A: Its value is 50%.

Q: What about the “FSGS and IF/TA histology scores” value ([2]; PU^hi arm) of the same compound?
A: The value was “significantly lower”.

Q: What about the “Endo-capillary hypercellularity in the kidney” value ([2]; PU^hi arm, versus both control and MMF-treated mice) of the same compound?
A: Its value is “significantly lower”.

Q: What about the Established proteinuria ([2]; mice that already developed proteinuria, vs water) of the same compound?
A: Its Established proteinuria is “significant reduction of proteinuria; also recorded: suppresses proteinuria”.

Q: What about the Survival ([2]; vs water) of the same compound?
A: Its Survival is “better; also recorded: significantly increased survival; also recorded: survived”.

Q: And the Survival ([2]; vs water, listed as laquinimod)?
A: Its Survival is “better”.

Q: And the “Mice with proteinuria present after 3 wks. of treatment” value ([2]; treated after clinical nephritis appeared (≧3+ proteinuria), water 100%, p<0.001)?
A: Its value is 25%.

Q: And the “Histologic evidence of inflammation in the kidneys” value ([2]; treatment starting after proteinuria developed, vs water)?
A: The value was “significantly less histologic evidence of inflammation”.

Q: And the Anti-dsDNA [3]?
A: The Anti-dsDNA was “not significantly decreased”.

Q: And the Increase of proteinuria [3]?
A: Its Increase of proteinuria is “prevented increased proteinuria”.

Q: What about the “Rise in serum creatinine” value [3] of the same compound?
A: Its value is “prevented”.

Q: And the Survival [3]?
A: Its Survival is “significantly prolonged survival”.

Q: What about the “Reduction of endo-capillary hypercellularity, interstitial inflammation, and focal segmental glomerulosclerosis” value [3] of the same compound?
A: The value was “equally effective”.

Q: Which Survival vs. controls ([1]; MMF 100 mg/kg) does the source give for `COc1c(C)c2c(c(O)c1C/C=C(\C)CCC(=O)OCCN1CCOCC1)C(=O)OC2` [MMF, mycophenolate mofetil, reference compound] here?
A: The Survival vs. controls was “better”.

Q: And the “Survival, low dose treatment” value [1]?
A: The value was “significantly better; also recorded: still alive at 45 weeks”.

Q: What about the “Chronic scarring (GS, FSGS, IFTA) in kidney” value [1] of the same compound?
A: Its value is “less”.

Q: And the “Onset of proteinuria beyond 32 weeks up until about 42 weeks” value ([1]; MMF 30 mg/kg)?
A: Its value is “effective in delaying onset of proteinuria”.

Q: And the “Serum/plasma IgG anti-dsDNA antibody levels” value ([1]; MMF 100 mg/kg)?
A: The value was “suppressed; also recorded: lower anti-DNA levels”.

Q: What about the Prevention of proteinuria ([1]; MMF 30 mg/kg, 18-week study period) of the same compound?
A: The Prevention of proteinuria was “did not”.

Q: What about the Prevention of proteinuria [1, 5] of the same compound?
A: Its Prevention of proteinuria is “prevented proteinuria and prevented the appearance of proteinuria and none”.

Q: What about the “Kidney specimens (histology, glomerular IgG and C3 deposits)” value [1, 6] of the same compound?
A: Its value is “largely unremarkable”.

Q: And the “Mice with proteinuria at 32 wks. of age” value ([1]; MMF 100 mg/kg)?
A: The value was “zero and none”.

Q: And the “Mean total histologic score (renal histology)” value ([1]; MMF 100 mg/kg)?
A: Its value is 0.9.

Q: And the “Glomerular deposition of Ig and C3” value [1]?
A: The value was “in the normal range; also recorded: significantly decreased”.

Q: And the “Animals with proteinuria reduced to levels below 300 mg/dL” value [2, 7]?
A: The value was “approximately 25%”.

Q: What about the “FSGS and IF/TA histology scores” value ([2]; PU^hi arm) of the same compound?
A: The value was “significantly lower”.

Q: What about the Survival ([2]; vs water) of the same compound?
A: Its Survival is “not observed”.

Q: And the Anti-dsDNA [3]?
A: Its Anti-dsDNA is “not significantly decreased”.

Q: What about the Increase of proteinuria [3] of the same compound?
A: Its Increase of proteinuria is “prevented increased proteinuria”.

Q: What about the “Rise in serum creatinine” value [3] of the same compound?
A: The value was “prevented”.

Q: And the Survival [3]?
A: The Survival was “significantly prolonged survival”.

Q: What about the “Reduction of endo-capillary hypercellularity, interstitial inflammation, and focal segmental glomerulosclerosis” value [3] of the same compound?
A: The value was “equally effective”.
